Experimental data as given in the NIST ThermoML archive (doi:10.1021/je500458e).
± gives the expanded uncertainty stated by the source.

Experiment: mn = molality of the nth substance listed, in mol/kg
Details: 298.15 K, Liquid

With `Nc1nc(O)c2ncn([C@H]3C[C@H](O)[C@@H](CO)O3)c2n1` [2'-deoxyguanosine] + O the speed of sound (100 kPa, m1 = 0.009827) was 1497.4 ± 1.5 m/s, the speed of sound (100 kPa, m1 = 0.01011) was 1497.4 ± 1.5 m/s and the speed of sound (100 kPa, m1 = 0.01028) was 1497.4 ± 1.5 m/s. It also gave a speed of sound (100 kPa, m1 = 0.0103) of 1497.4 ± 1.5 m/s, a speed of sound (100 kPa, m1 = 0.01048) of 1497.4 ± 1.5 m/s and a speed of sound (100 kPa, m1 = 0.01051) of 1497.4 ± 1.5 m/s. For the same compound, the speed of sound (100 kPa, m1 = 0.01057) was 1497.4 ± 1.5 m/s, the speed of sound (100 kPa, m1 = 0.0107) was 1497.5 ± 1.5 m/s and the speed of sound (10000 kPa, m1 = 0.0103) was 1514 ± 0.63 m/s. The speed of sound (10000 kPa, m1 = 0.01043) was 1514 ± 0.63 m/s, the speed of sound (10000 kPa, m1 = 0.01048) was 1514 ± 0.63 m/s and the speed of sound (10000 kPa, m1 = 0.01059) was 1514.1 ± 0.63 m/s. It also gave a speed of sound (10000 kPa, m1 = 0.01062) of 1514.1 ± 0.63 m/s, a speed of sound (10000 kPa, m1 = 0.01068) of 1514.1 ± 0.63 m/s and a speed of sound (10000 kPa, m1 = 0.01075) of 1514.1 ± 0.63 m/s. It also gave a speed of sound (20000 kPa, m1 = 0.0103) of 1530.8 ± 0.64 m/s, a speed of sound (20000 kPa, m1 = 0.01036) of 1530.8 ± 0.64 m/s and a speed of sound (20000 kPa, m1 = 0.01043) of 1530.8 ± 0.64 m/s. It also gave a speed of sound (20000 kPa, m1 = 0.01048) of 1530.8 ± 0.64 m/s, a speed of sound (20000 kPa, m1 = 0.01059) of 1530.9 ± 0.64 m/s and a speed of sound (20000 kPa, m1 = 0.01062) of 1530.9 ± 0.64 m/s. It also gave a speed of sound (20000 kPa, m1 = 0.01068) of 1530.9 ± 0.64 m/s, a speed of sound (20000 kPa, m1 = 0.01075) of 1530.9 ± 0.64 m/s and a speed of sound (40000 kPa, m1 = 0.0103) of 1564.4 ± 0.64 m/s. It also gave a speed of sound (40000 kPa, m1 = 0.01036) of 1564.4 ± 0.64 m/s, a speed of sound (40000 kPa, m1 = 0.01043) of 1564.4 ± 0.64 m/s and a speed of sound (40000 kPa, m1 = 0.01048) of 1564.4 ± 0.64 m/s. For the same compound, the speed of sound (40000 kPa, m1 = 0.01062) was 1564.4 ± 0.64 m/s, the speed of sound (40000 kPa, m1 = 0.01075) was 1564.4 ± 0.64 m/s and the speed of sound (60000 kPa, m1 = 0.0103) was 1597.9 ± 0.64 m/s. The speed of sound (60000 kPa, m1 = 0.01036) was 1597.9 ± 0.64 m/s, the speed of sound (60000 kPa, m1 = 0.01043) was 1597.9 ± 0.64 m/s and the speed of sound (60000 kPa, m1 = 0.01048) was 1597.9 ± 0.64 m/s. The speed of sound (60000 kPa, m1 = 0.01059) was 1597.9 ± 0.64 m/s, the speed of sound (60000 kPa, m1 = 0.01062) was 1597.9 ± 0.64 m/s and the speed of sound (60000 kPa, m1 = 0.01068) was 1597.9 ± 0.64 m/s. It also gave a speed of sound (60000 kPa, m1 = 0.01075) of 1597.9 ± 0.64 m/s, a speed of sound (80000 kPa, m1 = 0.0103) of 1631.3 ± 0.65 m/s and a speed of sound (80000 kPa, m1 = 0.01036) of 1631.3 ± 0.64 m/s. For the same compound, the speed of sound (80000 kPa, m1 = 0.01043) was 1631.3 ± 0.64 m/s, the speed of sound (80000 kPa, m1 = 0.01048) was 1631.3 ± 0.64 m/s and the speed of sound (80000 kPa, m1 = 0.01059) was 1631.3 ± 0.64 m/s. For the same compound, the speed of sound (80000 kPa, m1 = 0.01062) was 1631.3 ± 0.64 m/s, the speed of sound (80000 kPa, m1 = 0.01068) was 1631.3 ± 0.64 m/s and the speed of sound (80000 kPa, m1 = 0.01075) was 1631.3 ± 0.64 m/s. The speed of sound (100000 kPa, m1 = 0.0103) was 1664.4 ± 0.65 m/s, the speed of sound (100000 kPa, m1 = 0.01036) was 1664.4 ± 0.65 m/s and the speed of sound (100000 kPa, m1 = 0.01043) was 1664.4 ± 0.65 m/s. The speed of sound (100000 kPa, m1 = 0.01048) was 1664.4 ± 0.65 m/s, the speed of sound (100000 kPa, m1 = 0.01059) was 1664.5 ± 0.65 m/s and the speed of sound (100000 kPa, m1 = 0.01062) was 1664.5 ± 0.65 m/s. The speed of sound (100000 kPa, m1 = 0.01068) was 1664.5 ± 0.65 m/s and the speed of sound (100000 kPa, m1 = 0.01075) was 1664.5 ± 0.65 m/s.

Work on `O=c1[nH]cnc2c1ncn2[C@H]1C[C@H](O)[C@@H](CO)O1` [2'-deoxyinosine] + O yielded a speed of sound (100 kPa, m1 = 0.02199) of 1498.1 ± 1.5 m/s, a speed of sound (100 kPa, m1 = 0.02301) of 1498.2 ± 1.5 m/s and a speed of sound (100 kPa, m1 = 0.024) of 1498.3 ± 1.5 m/s. For the same compound, the speed of sound (100 kPa, m1 = 0.02493) was 1498.3 ± 1.5 m/s, the speed of sound (100 kPa, m1 = 0.02599) was 1498.4 ± 1.5 m/s and the speed of sound (100 kPa, m1 = 0.02701) was 1498.5 ± 1.5 m/s. For the same compound, the speed of sound (100 kPa, m1 = 0.02813) was 1498.6 ± 1.5 m/s, the speed of sound (100 kPa, m1 = 0.02896) was 1498.6 ± 1.5 m/s and the speed of sound (100 kPa, m1 = 0.02994) was 1498.7 ± 1.5 m/s. The speed of sound (10000 kPa, m1 = 0.02283) was 1514.8 ± 0.64 m/s, the speed of sound (10000 kPa, m1 = 0.0239) was 1514.9 ± 0.64 m/s and the speed of sound (10000 kPa, m1 = 0.02481) was 1514.9 ± 0.64 m/s. It also gave a speed of sound (10000 kPa, m1 = 0.02661) of 1515 ± 0.64 m/s, a speed of sound (10000 kPa, m1 = 0.02749) of 1515.1 ± 0.64 m/s and a speed of sound (10000 kPa, m1 = 0.02755) of 1515.1 ± 0.64 m/s. For the same compound, the speed of sound (10000 kPa, m1 = 0.02877) was 1515.2 ± 0.64 m/s, the speed of sound (10000 kPa, m1 = 0.02944) was 1515.2 ± 0.64 m/s and the speed of sound (20000 kPa, m1 = 0.02283) was 1531.6 ± 0.64 m/s. It also gave a speed of sound (20000 kPa, m1 = 0.0239) of 1531.7 ± 0.64 m/s, a speed of sound (20000 kPa, m1 = 0.02481) of 1531.7 ± 0.64 m/s and a speed of sound (20000 kPa, m1 = 0.02661) of 1531.9 ± 0.64 m/s. The speed of sound (20000 kPa, m1 = 0.02749) was 1531.9 ± 0.64 m/s, the speed of sound (20000 kPa, m1 = 0.02755) was 1531.9 ± 0.64 m/s and the speed of sound (20000 kPa, m1 = 0.02877) was 1532 ± 0.64 m/s. The speed of sound (20000 kPa, m1 = 0.02944) was 1532 ± 0.64 m/s, the speed of sound (40000 kPa, m1 = 0.02283) was 1565.2 ± 0.64 m/s and the speed of sound (40000 kPa, m1 = 0.0239) was 1565.3 ± 0.64 m/s. For the same compound, the speed of sound (40000 kPa, m1 = 0.02481) was 1565.3 ± 0.64 m/s, the speed of sound (40000 kPa, m1 = 0.02661) was 1565.5 ± 0.64 m/s and the speed of sound (40000 kPa, m1 = 0.02749) was 1565.5 ± 0.64 m/s. The speed of sound (40000 kPa, m1 = 0.02755) was 1565.5 ± 0.64 m/s, the speed of sound (40000 kPa, m1 = 0.02877) was 1565.6 ± 0.64 m/s and the speed of sound (40000 kPa, m1 = 0.02944) was 1565.6 ± 0.64 m/s. For the same compound, the speed of sound (60000 kPa, m1 = 0.02283) was 1598.7 ± 0.64 m/s, the speed of sound (60000 kPa, m1 = 0.0239) was 1598.8 ± 0.64 m/s and the speed of sound (60000 kPa, m1 = 0.02481) was 1598.9 ± 0.64 m/s. It also gave a speed of sound (60000 kPa, m1 = 0.02661) of 1599 ± 0.64 m/s, a speed of sound (60000 kPa, m1 = 0.02749) of 1599 ± 0.64 m/s and a speed of sound (60000 kPa, m1 = 0.02755) of 1599 ± 0.64 m/s. The speed of sound (60000 kPa, m1 = 0.02877) was 1599.1 ± 0.64 m/s, the speed of sound (60000 kPa, m1 = 0.02944) was 1599.2 ± 0.64 m/s and the speed of sound (80000 kPa, m1 = 0.02283) was 1632.1 ± 0.64 m/s. For the same compound, the speed of sound (80000 kPa, m1 = 0.0239) was 1632.1 ± 0.65 m/s, the speed of sound (80000 kPa, m1 = 0.02481) was 1632.2 ± 0.65 m/s and the speed of sound (80000 kPa, m1 = 0.02661) was 1632.3 ± 0.65 m/s. It also gave a speed of sound (80000 kPa, m1 = 0.02749) of 1632.4 ± 0.65 m/s, a speed of sound (80000 kPa, m1 = 0.02755) of 1632.4 ± 0.65 m/s and a speed of sound (80000 kPa, m1 = 0.02877) of 1632.5 ± 0.65 m/s. For the same compound, the speed of sound (80000 kPa, m1 = 0.02944) was 1632.5 ± 0.65 m/s, the speed of sound (100000 kPa, m1 = 0.02283) was 1665.2 ± 0.65 m/s and the speed of sound (100000 kPa, m1 = 0.0239) was 1665.3 ± 0.65 m/s. It also gave a speed of sound (100000 kPa, m1 = 0.02481) of 1665.3 ± 0.65 m/s, a speed of sound (100000 kPa, m1 = 0.02661) of 1665.5 ± 0.65 m/s and a speed of sound (100000 kPa, m1 = 0.02749) of 1665.5 ± 0.65 m/s. It also gave a speed of sound (100000 kPa, m1 = 0.02755) of 1665.5 ± 0.65 m/s, a speed of sound (100000 kPa, m1 = 0.02877) of 1665.6 ± 0.65 m/s and a speed of sound (100000 kPa, m1 = 0.02944) of 1665.6 ± 0.65 m/s.
